Calls of active or inactive are those of the source. The rule behind the calls is not given here.
Test system: rodent lifetime carcinogenesis bioassay, tumor incidence TD50
Assay: carcinogenic potency in animals, long-term in vivo studies, CPDB compilation (AID 1745844)

O=[N+]([O-])c1ccc2ccc3cccc4ccc1c2c34
TD50 (rat, strain Fischer 344/Jcl, females, by gavage, site: all sites, lesion: mononuclear-cell leukemia, dosed 55 weeks, study length 104 weeks): 4.33 mg/kg/day
TD50 (rat, strain Fischer 344/Jcl, females, by gavage, site: clitoral gland, lesion: adenocarcinoma, dosed 55 weeks, study length 104 weeks): 157 mg/kg/day
TD50 (rat, strain Fischer 344/Jcl, females, by gavage, site: clitoral gland, lesion: several types, types named in the paper, dosed 55 weeks, study length 104 weeks): 6.16 mg/kg/day
TD50 (rat, strain Fischer 344/Jcl, females, by gavage, site: clitoral gland, lesion: squamous-cell carcinoma, dosed 55 weeks, study length 104 weeks): 6.08 mg/kg/day
TD50 (rat, strain Fischer 344/Jcl, females, by gavage, site: mammary gland, lesion: adenocarcinoma, dosed 55 weeks, study length 104 weeks): 4.82 mg/kg/day
TD50 (rat, strain Fischer 344/Jcl, females, by gavage, site: mammary gland, lesion: adenoma, dosed 55 weeks, study length 104 weeks): 51.4 mg/kg/day
TD50 (rat, strain Fischer 344/Jcl, females, by gavage, site: mammary gland, lesion: fibroadenoma, dosed 55 weeks, study length 104 weeks): 39.6 mg/kg/day
TD50 (rat, strain Fischer 344/Jcl, females, by gavage, site: mammary gland, lesion: several types, types named in the paper, dosed 55 weeks, study length 104 weeks): 3.33 mg/kg/day
TD50 (rat, strain Fischer 344/Jcl, females, by gavage, site: uterus, lesion: endometrial stromal polyp, dosed 55 weeks, study length 104 weeks): 13.1 mg/kg/day

C1C2OC2C2C1C1CC2C2OC12 (configuration not stated)
TD50 (mouse, strain CD-1 HaM/ICR, females, in feed, site: any site (literature study), lesion: several types, types named in the paper, dosed 64 weeks, study length 86 weeks): 789 mg/kg/day (inactive)
carcinogen call (mouse, strain CD-1 HaM/ICR, females, in feed, site: liver, lesion: several types, types named in the paper, dosed 64 weeks, study length 86 weeks): negative (inactive)
TD50 (mouse, strain CD-1 HaM/ICR, females, in feed, site: lung, lesion: several types, types named in the paper, dosed 64 weeks, study length 86 weeks): 1660 mg/kg/day (inactive)
TD50 (mouse, strain CD-1 HaM/ICR, males, in feed, site: any site (literature study), lesion: several types, types named in the paper, dosed 77 weeks, study length 86 weeks): 149 mg/kg/day (inactive)
TD50 (mouse, strain CD-1 HaM/ICR, males, in feed, site: liver, lesion: several types, types named in the paper, dosed 77 weeks, study length 86 weeks): 930 mg/kg/day (inactive)
TD50 (mouse, strain CD-1 HaM/ICR, males, in feed, site: lung, lesion: several types, types named in the paper, dosed 77 weeks, study length 86 weeks): 373 mg/kg/day (inactive)
TD50 (rat, strain Charles River CD (Sprague-Dawley), males, in feed, site: any site (literature study), lesion: several types, types named in the paper, dosed 77 weeks, study length 107 weeks): 176 mg/kg/day (inactive)
TD50 (rat, strain Charles River CD (Sprague-Dawley), males, in feed, site: liver, lesion: several types, types named in the paper, dosed 77 weeks, study length 107 weeks): 3910 mg/kg/day (inactive)

O=C([O-])c1cc(N=Nc2ccc(-c3ccc(N=Nc4c(O)ccc(N=Nc5cc(S(=O)(=O)[O-])ccc5[O-])c4[O-])cc3)cc2)ccc1O.[Cu+2].[Na+].[Na+]
TD50 (rat, strain Fischer 344, females, in feed, site: any site (literature study), lesion: several types, types named in the paper, dosed 13 weeks, study length 13 weeks): 2.07 mg/kg/day
TD50 (rat, strain Fischer 344, females, in feed, site: liver, lesion: hepatocellular adenoma + hepatocellular carcinoma + neoplastic nodule, dosed 13 weeks, study length 13 weeks): 2.07 mg/kg/day
TD50 (rat, strain Fischer 344, females, in feed, site: liver, lesion: hepatocellular carcinoma + neoplastic nodule, dosed 13 weeks, study length 13 weeks): 2.07 mg/kg/day
carcinogen call (rat, strain Fischer 344, males, in feed, site: any site (literature study), lesion: several types, types named in the paper, dosed 13 weeks, study length 13 weeks): negative (inactive)

CCN(CC)C(=S)S[Se](SC(=S)N(CC)CC)(SC(=S)N(CC)CC)SC(=S)N(CC)CC
TD50 (mouse, strain B6AKF1, females, oral dosing, site: any site (literature study), lesion: several types, types named in the paper, dosed 81 weeks, study length 81 weeks): 10.5 mg/kg/day
TD50 (mouse, strain B6AKF1, males, oral dosing, site: any site (literature study), lesion: several types, types named in the paper, dosed 81 weeks, study length 81 weeks): 8.45 mg/kg/day
TD50 (mouse, strain B6AKF1, males, oral dosing, site: liver, lesion: hepatoma, dosed 81 weeks, study length 81 weeks): 10.2 mg/kg/day
TD50 (mouse, strain B6AKF1, males, oral dosing, site: lung, lesion: adenoma, dosed 81 weeks, study length 81 weeks): 18.4 mg/kg/day
TD50 (mouse, strain B6C3F1, females, oral dosing, site: any site (literature study), lesion: several types, types named in the paper, dosed 81 weeks, study length 81 weeks): 3.46 mg/kg/day
TD50 (mouse, strain B6C3F1, females, oral dosing, site: liver, lesion: hepatoma, dosed 81 weeks, study length 81 weeks): 7.76 mg/kg/day
TD50 (mouse, strain B6C3F1, males, oral dosing, site: any site (literature study), lesion: several types, types named in the paper, dosed 81 weeks, study length 81 weeks): 0.638 mg/kg/day
TD50 (mouse, strain B6C3F1, males, oral dosing, site: liver, lesion: hepatoma, dosed 81 weeks, study length 81 weeks): 1.49 mg/kg/day
TD50 (mouse, strain B6C3F1, males, oral dosing, site: liver, lesion: several types, types named in the paper, dosed 81 weeks, study length 81 weeks): 1.28 mg/kg/day

CC(O)CNCC(C)O (configuration not stated)
carcinogen call (rat, strain Wistar, males, in feed, site: liver, lesion: hepatocellular carcinoma, dosed 94 weeks, study length 94 weeks): negative (inactive)
carcinogen call (rat, strain Wistar, males, in feed, site: lung, lesion: one or several types, types not named, dosed 94 weeks, study length 94 weeks): negative (inactive)
carcinogen call (rat, strain Wistar, males, in feed, site: nasal cavity, lesion: one or several types, types not named, dosed 94 weeks, study length 94 weeks): negative (inactive)

Cc1ccc2c(c1[N+](=O)[O-])C(=O)c1ccccc1C2=O
TD50 (mouse, strain B6C3F1, females, in feed, site: any site (literature study), lesion: several types, types named in the paper, dosed 49 weeks, study length 49 weeks): 1.76 mg/kg/day
TD50 (mouse, strain B6C3F1, females, in feed, site: lung, lesion: alveolar/bronchiolar adenoma + alveolar/bronchiolar carcinoma, dosed 49 weeks, study length 49 weeks): 97.3 mg/kg/day
TD50 (mouse, strain B6C3F1, females, in feed, site: subcutaneous tissue, lesion: hemangiosarcoma, dosed 49 weeks, study length 49 weeks): 1.88 mg/kg/day
TD50 (mouse, strain B6C3F1, males, in feed, site: any site (literature study), lesion: several types, types named in the paper, dosed 46 weeks, study length 46 weeks): 1.02 mg/kg/day
TD50 (mouse, strain B6C3F1, males, in feed, site: lung, lesion: alveolar/bronchiolar adenoma + alveolar/bronchiolar carcinoma, dosed 46 weeks, study length 46 weeks): 45.5 mg/kg/day
TD50 (mouse, strain B6C3F1, males, in feed, site: subcutaneous tissue, lesion: hemangiosarcoma, dosed 46 weeks, study length 46 weeks): 1.34 mg/kg/day
TD50 (rat, strain Fischer 344, females, in feed, site: any site (literature study), lesion: several types, types named in the paper, dosed 78 weeks, study length 109 weeks): 47.1 mg/kg/day
TD50 (rat, strain Fischer 344, females, in feed, site: liver, lesion: hepatocellular adenoma + hepatocellular carcinoma + neoplastic nodule, dosed 78 weeks, study length 109 weeks): 324 mg/kg/day
TD50 (rat, strain Fischer 344, females, in feed, site: liver, lesion: hepatocellular carcinoma + neoplastic nodule, dosed 78 weeks, study length 109 weeks): 324 mg/kg/day
TD50 (rat, strain Fischer 344, females, in feed, site: liver, lesion: hepatocellular carcinoma, dosed 78 weeks, study length 109 weeks): 547 mg/kg/day
TD50 (rat, strain Fischer 344, females, in feed, site: pituitary gland, lesion: adenoma, dosed 78 weeks, study length 109 weeks): 63.4 mg/kg/day
TD50 (rat, strain Fischer 344, females, in feed, site: stomach, lesion: squamous-cell carcinoma, dosed 78 weeks, study length 109 weeks): 507 mg/kg/day
TD50 (rat, strain Fischer 344, females, in feed, site: subcutaneous tissue, lesion: fibroma, dosed 78 weeks, study length 109 weeks): 131 mg/kg/day
TD50 (rat, strain Fischer 344, females, in feed, site: urinary bladder, lesion: papilloma, NOS + sarcoma, NOS + transitional-cell papilloma, dosed 78 weeks, study length 109 weeks): 224 mg/kg/day
TD50 (rat, strain Fischer 344, males, in feed, site: any site (literature study), lesion: several types, types named in the paper, dosed 78 weeks, study length 109 weeks): 31.9 mg/kg/day
TD50 (rat, strain Fischer 344, males, in feed, site: liver, lesion: hepatocellular adenoma + hepatocellular carcinoma + neoplastic nodule, dosed 78 weeks, study length 109 weeks): 48.8 mg/kg/day
TD50 (rat, strain Fischer 344, males, in feed, site: liver, lesion: hepatocellular carcinoma + neoplastic nodule, dosed 78 weeks, study length 109 weeks): 48.8 mg/kg/day
TD50 (rat, strain Fischer 344, males, in feed, site: liver, lesion: hepatocellular carcinoma, dosed 78 weeks, study length 109 weeks): 89.2 mg/kg/day
TD50 (rat, strain Fischer 344, males, in feed, site: liver, lesion: neoplastic nodule, dosed 78 weeks, study length 109 weeks): 133 mg/kg/day
TD50 (rat, strain Fischer 344, males, in feed, site: subcutaneous tissue, lesion: fibroma, dosed 78 weeks, study length 109 weeks): 25.8 mg/kg/day

CCN(Cc1cccc(S(=O)(=O)O)c1)c1ccc(C(=C2C=CC(=[N+](CC)Cc3cccc(S(=O)(=O)O)c3)C=C2)c2ccccc2S(=O)(=O)[O-])cc1
carcinogen call (mouse, strain Charles River CD1, females, in feed, site: liver, lesion: hemangioma, dosed 104 weeks, study length 104 weeks): negative (inactive)
TD50 (mouse, strain Charles River CD1, females, in feed, site: lung, lesion: adenocarcinoma, dosed 104 weeks, study length 104 weeks): 372000 mg/kg/day (inactive)
carcinogen call (mouse, strain Charles River CD1, females, in feed, site: lung, lesion: alveolar-cell adenoma, dosed 104 weeks, study length 104 weeks): negative (inactive)
TD50 (mouse, strain Charles River CD1, females, in feed, site: lung, lesion: alveolar-cell carcinoma, dosed 104 weeks, study length 104 weeks): 607000 mg/kg/day (inactive)
carcinogen call (mouse, strain Charles River CD1, females, in feed, site: lung, lesion: bronchiolar adenocarcinoma, dosed 104 weeks, study length 104 weeks): negative (inactive)
TD50 (mouse, strain Charles River CD1, females, in feed, site: lung, lesion: bronchiolar adenoma, dosed 104 weeks, study length 104 weeks): 856000 mg/kg/day (inactive)
carcinogen call (mouse, strain Charles River CD1, males, in feed, site: liver, lesion: hemangiosarcoma, dosed 104 weeks, study length 104 weeks): negative (inactive)
carcinogen call (mouse, strain Charles River CD1, males, in feed, site: liver, lesion: hepatocellular carcinoma, dosed 104 weeks, study length 104 weeks): negative (inactive)
TD50 (mouse, strain Charles River CD1, males, in feed, site: lung, lesion: adenocarcinoma, dosed 104 weeks, study length 104 weeks): 293000 mg/kg/day (inactive)
carcinogen call (mouse, strain Charles River CD1, males, in feed, site: lung, lesion: alveogenic adenocarcinoma, dosed 104 weeks, study length 104 weeks): negative (inactive)
carcinogen call (mouse, strain Charles River CD1, males, in feed, site: lung, lesion: alveolar-cell adenoma, dosed 104 weeks, study length 104 weeks): negative (inactive)
carcinogen call (mouse, strain Charles River CD1, males, in feed, site: lung, lesion: alveolar-cell carcinoma, dosed 104 weeks, study length 104 weeks): negative (inactive)
TD50 (mouse, strain Charles River CD1, males, in feed, site: lung, lesion: bronchiolar adenocarcinoma, dosed 104 weeks, study length 104 weeks): 343000 mg/kg/day (inactive)
TD50 (mouse, strain Charles River CD1, males, in feed, site: lung, lesion: bronchiolar adenoma, dosed 104 weeks, study length 104 weeks): 91100 mg/kg/day (inactive)
carcinogen call (rat, strain Osborne-Mendel, both sexes, in feed, site: any site (literature study), lesion: several types, types named in the paper, dosed 104 weeks, study length 104 weeks): negative (inactive)
TD50 (rat, strain Osborne-Mendel, both sexes, in feed, site: liver, lesion: hepatoma, dosed 104 weeks, study length 104 weeks): 62100 mg/kg/day

O=NN1CCNCC1
TD50 (rat, strain MRC, females, in drinking water, site: any site (literature study), lesion: several types, types named in the paper, dosed 60 weeks, study length 127 weeks): 5.51 mg/kg/day
TD50 (rat, strain MRC, males, in drinking water, site: any site (literature study), lesion: several types, types named in the paper, dosed 60 weeks, study length 127 weeks): 21.6 mg/kg/day
TD50 (rat, strain MRC, males, in drinking water, site: liver, lesion: hepatoma, dosed 60 weeks, study length 127 weeks): 6.52 mg/kg/day

Cc1ccccc1OCC(O)CNCCn1cc(C)c(=O)[nH]c1=O (configuration not stated)
TD50 (mouse, strain Charles River CD1, females, in feed, site: any site (literature study), lesion: several types, types named in the paper, dosed 78 weeks, study length 78 weeks): 52.3 mg/kg/day
TD50 (mouse, strain Charles River CD1, females, in feed, site: liver, lesion: hepatocellular carcinoma, dosed 78 weeks, study length 78 weeks): 1670 mg/kg/day
TD50 (mouse, strain Charles River CD1, females, in feed, site: lung, lesion: adenocarcinoma, dosed 78 weeks, study length 78 weeks): 1670 mg/kg/day
TD50 (mouse, strain Charles River CD1, females, in feed, site: lung, lesion: adenoma, dosed 78 weeks, study length 78 weeks): 449 mg/kg/day
TD50 (mouse, strain Charles River CD1, males, in feed, site: liver, lesion: hepatocellular carcinoma, dosed 78 weeks, study length 78 weeks): 935 mg/kg/day

From PubChem BioAssay AID1745844 (Carcinogenic Potency Database (CPDB), 2022)
